# Source: ChEMBL document CHEMBL5260825, “Chemical Constituents of Bryophytes: Structures and Biological Activity” (J Nat Prod, 2018)
# What was measured:
# Botrytis cinerea = experiment: Antifungal activity against Botrytis cinerea assessed as inhibition of microbial growth by microtiter plate based analysis; type: functional, organism-based
# Pyricularia oryzae [1] = experiment: Antifungal activity against Pyricularia oryzae assessed as inhibition of microbial growth by microtiter plate based analysis; type: functional, organism-based
# Zymoseptoria tritici = experiment: Antifungal activity against Zymoseptoria tritici assessed as inhibition of microbial growth by microtiter plate based analysis; type: functional, organism-based
# [2] = target: T1, Alpha glucosidase (Homo sapiens) (UniProt O43451+P10253+P14410+Q2M2H8); experiment: Inhibition of alpha glucosidase (unknown origin) at 1 mM relative to control; type: protein assay
# [3] = target: T1, Alpha glucosidase (Homo sapiens); experiment: Inhibition of alpha glucosidase (unknown origin) at 0.4 mM relative to control; type: protein assay
# [4] = tested on: Trypanosoma brucei brucei; experiment: Antitrypanosomal activity against bloodstream Trypanosoma brucei brucei assessed as parasite growth inhibition measured after 72 hrs by alamar blue assay; type: functional, organism-based
# RAW264.7 = experiment: Inhibition of LPS-induced NO production in mouse RAW264.7 cells incubated for 24 hrs by Griess reagent based assay; type: functional, cell-based; details: RAW264.7, 24 h
# [5] = target: Procathepsin L (Homo sapiens) (UniProt P07711); experiment: Inhibition of Cathepsin L (unknown origin) at 0.00001 M relative to control; details: dose 10 µM
# [6] = tested on: Peritoneal macrophage cell; experiment: Inhibition of superoxide anion radical release in guinea pig peritoneal macrophages; type: functional, cell-based; details: Cavia porcellus
# [7] = Inhibition of superoxide anion radical release in rabbit polymorphonuclear leucocytes; type: functional, cell-based; details: Oryctolagus cuniculus, Polymorphonuclear neutrophil
# [8] = target: Cathepsin B (Homo sapiens) (UniProt P07858); experiment: Inhibition of Cathepsin B (unknown origin) at 0.00001 M relative to control; details: dose 10 µM
# Cyclooxygenase = Cyclooxygenase (Homo sapiens, UniProt P35354+P23219); experiment: Inhibition of COX (unknown origin); type: protein assay
# [9] = target: T2, Polyunsaturated fatty acid 5-lipoxygenase (Homo sapiens) (UniProt P09917); experiment: Inhibition of ALOX5 (unknown origin) assessed as reduction in calmodulin level
# T2 sequence (whole entry): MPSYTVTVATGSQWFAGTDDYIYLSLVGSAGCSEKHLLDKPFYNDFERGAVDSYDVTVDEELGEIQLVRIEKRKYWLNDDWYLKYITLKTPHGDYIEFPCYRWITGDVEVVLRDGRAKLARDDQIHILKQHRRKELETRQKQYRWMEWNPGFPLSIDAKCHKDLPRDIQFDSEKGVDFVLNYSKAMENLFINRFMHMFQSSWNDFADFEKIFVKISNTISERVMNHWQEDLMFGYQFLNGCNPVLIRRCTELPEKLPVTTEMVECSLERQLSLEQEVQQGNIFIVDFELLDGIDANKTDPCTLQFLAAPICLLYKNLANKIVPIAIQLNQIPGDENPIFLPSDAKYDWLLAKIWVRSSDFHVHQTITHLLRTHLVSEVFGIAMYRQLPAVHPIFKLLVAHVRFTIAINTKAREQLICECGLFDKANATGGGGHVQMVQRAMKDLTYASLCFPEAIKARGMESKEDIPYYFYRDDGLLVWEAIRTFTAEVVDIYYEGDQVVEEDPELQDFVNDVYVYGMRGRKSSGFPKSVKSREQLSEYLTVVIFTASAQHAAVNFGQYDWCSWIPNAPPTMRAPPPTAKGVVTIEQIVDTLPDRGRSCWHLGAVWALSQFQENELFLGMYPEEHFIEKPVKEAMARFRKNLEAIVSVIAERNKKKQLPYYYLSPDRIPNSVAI
# Candida albicans [10] = experiment: Antifungal activity against Candida albican ATCC10231 assessed as inhibition of fungal growth by measuring minimal inhibitory quantity by microdilution method; type: functional
# Candida albicans [11] = experiment: Antifungal activity against Candida albican ATCC10231 assessed as inhibition of fungal growth by microdilution method; type: functional
# Pyricularia oryzae [12] = experiment: Antifungal activity against Pyricularia oryzae assessed as inhibition of microbial growth; type: functional, organism-based
# Cladosporium cucumerinum = experiment: Antifungal activity against Cladosporium cucumerinum assessed as inhibition of microbial growth by microtiter plate based analysis; type: functional, organism-based
# Phytophthora infestans = experiment: Antifungal activity against Phytophthora infestans assessed as inhibition of microbial growth by microtiter plate based analysis; type: functional, organism-based
# [13] = Antiplatelet activity against arachidonate-induced rabbit platelet assessed as inhibition of platelet aggregation at 50 ug/ml relative to control; type: functional; details: Oryctolagus cuniculus
# [14] = Antiplatelet activity against arachidonate-induced rabbit platelet assessed as inhibition of platelet aggregation at 100 ug/ml relative to control; type: functional; details: Oryctolagus cuniculus
# [15] = Antiplatelet activity against collagen-induced rabbit platelet assessed as inhibition of platelet aggregation at 100 ug/ml relative to control; type: functional; details: Oryctolagus cuniculus
# HT-29 = experiment: Antiproliferative activity against human HT-29 cells assessed as cell growth inhibition; type: functional, cell-based
# MCF7 = experiment: Antiproliferative activity against human MCF7 cells assessed as cell growth inhibition; type: functional, cell-based
# [16] = Cytotoxicity against mouse 3T3 cells assessed as reduction in cell viability; type: toxicity, cell-based; details: NIH3T3 cells
# K562 = experiment: Antiproliferative activity against human K562 cells assessed as cell growth inhibition; type: functional
# DU-145 = experiment: Antiproliferative activity against human DU-145 cells assessed as cell growth inhibition; type: functional
# M14 = experiment: Antiproliferative activity against human M14 cells assessed as cell growth inhibition; type: functional
# Candida albicans [17] = experiment: Antifungal activity against Candida albican assessed as reduction in fluconazole MIC by microdilution method; type: functional
# [18] = tested on: Trichostrongylus colubriformis; experiment: Anthelmintic activity against third stage larvae of Trichostrongylus colubriformis at 0.7 mg/ml by microscope based analysis relative to control; type: functional
# HepG2 = experiment: Antiproliferative activity against human HepG2 cells assessed as cell growth inhibition; type: functional, cell-based
# Procathepsin L (Homo sapiens), sequence (P07711 114-333 limits assumed): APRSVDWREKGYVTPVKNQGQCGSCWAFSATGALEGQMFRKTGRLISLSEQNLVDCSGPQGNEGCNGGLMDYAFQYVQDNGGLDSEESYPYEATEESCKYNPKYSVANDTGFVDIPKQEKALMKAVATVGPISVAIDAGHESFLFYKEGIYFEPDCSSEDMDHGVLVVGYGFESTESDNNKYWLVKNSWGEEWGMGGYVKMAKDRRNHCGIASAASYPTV
compound,measurement,setting,value
Oc1ccc2c(c1)CCc1ccc(O)c(c1)-c1cc(cc(Cl)c1O)CCc1ccc-2c(O)c1,IC50,Botrytis cinerea,18.9 µg/mL
same,IC50,Pyricularia oryzae [1],2.6 µg/mL
same,IC50,Zymoseptoria tritici,4.5 µg/mL
Oc1ccc2cc1Oc1ccc(cc1)CCc1cccc(O)c1Oc1cccc(c1)CC2,inhibition,[2],52.2%
same,inhibition,[3],100%
COc1cc([C@@]2(C)CCCC2(C)C)cc(O)c1C,IC50,[4],0.93 µg/mL
same,IC50,RAW264.7,4.1 µM
C=CC(=C)CC[C@]1(C)[C@H]2CCC=C(C)[C@]2(C)CC[C@H]1C(=O)O,inhibition,[5],63%
same,IC50,[6],25 µg/mL
same,IC50,[7],0.07 µg/mL
same,inhibition,[8],32%
C=C(C)[C@H]1Cc2c(CCc3ccccc3)cc(O)c(O)c2O1,IC50,[4],0.44 µg/mL
same,IC50,Cyclooxygenase,26.2 µM
same,ID50,[9],2 µg/mL
Oc1ccc2c(c1)CCc1ccc(O)c(c1)Oc1ccc(cc1)CCc1cccc(c1)O2 [PTYCHANOL A],MIC,Candida albicans [10],0.25 µg
same,MIC,Candida albicans [11],16 µg/mL
Oc1cc2ccc1Oc1cccc(c1)CCc1ccc(cc1)Oc1cc(ccc1O)CC2,MIC,Candida albicans [10],0.25 µg
same,MIC,Candida albicans [11],16 µg/mL
Cc1cc2c(cc1O)[C@H](C)CC[C@@H]2C(C)C,IC50,Pyricularia oryzae [12],4.1 µg/mL
same,IC50,Botrytis cinerea,14.2 µg/mL
same,IC50,Cladosporium cucumerinum,11.8 µg/mL
same,IC50,Phytophthora infestans,0.9 µg/mL
same,IC50,Zymoseptoria tritici,10 µg/mL
C=C1CC[C@H]2[C@@H]([C@H]3C(COC(C)=O)=CO[C@H](OC(C)=O)[C@@H]13)C2(C)C,inhibition at 50 µg/mL,[13],45%
same,inhibition at 100 µg/mL,[14],95%
same,inhibition at 100 µg/mL,[15],100%
CC(=O)O[C@H]1OC=C(CO)[C@@H]2[C@@H]3[C@H](CC[C@@]4(CO4)[C@H]12)C3(C)C,GI50,HT-29,6.1 µM
same,GI50,MCF7,9 µM
same,GI50,[16],3.8 µM
same,GI50,K562,8.7 µM
same,GI50,DU-145,4.8 µM
same,GI50,M14,6.4 µM
Oc1ccc2c(c1)CCc1ccc(cc1)Oc1cc(ccc1O)CCc1ccc-2c(O)c1 [RICCARDI C],IC50,Cyclooxygenase,53.5 µM
same,MIC,Candida albicans [17],8 µg/mL
COc1ccc(CCc2cccc(OC)c2)cc1,inhibition at 700 µg/mL,[18],85%
CC1(C)[C@H]2C[C@H](OC(=O)/C=C/c3ccc(O)cc3)[C@]1(C)C[C@H]2O,IC50,HepG2,4.5 µg/mL
